Test [1] is described as follows: HEK-293T cell viability reduction – luminescence, B-cell screen hits, cytotoxicity control for BCR NF-kB inhibitor project, dose response (AID 489021).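 Further: HEK-293T cells carrying an NF-kB luciferase reporter; cells exposed to compound for about 14 hours before viability readout.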 Format: functional, cell-based.
Test [2] can be described thus: Vero E6 cell cytotoxicity, dose response, cytotoxicity control for non-replicating M. tuberculosis project, secondary assay (AID 492998). As to conditions: Vero C1008. Format: functional, VeroE6.
For test [3], the target named is Beta-2 adrenergic receptor (Homo sapiens, UniProt P07550). The test can be described thus: ADRB2 activation measured by internalization – cell-based, FAP fluorogen, flow cytometry, cherry pick 1, dose response (AID 588763). Format: functional. A general note: A flow cytometer gives signals particle by particle.
The nature of test [4]: THP-1 cell cytotoxicity, dose response, cytotoxicity control for non-replicating M. tuberculosis project (AID 489025). Format: functional.
A short description of a further test: cells. Format: functional.
The target in the next test is T1, Bcl-2-like protein 10 (Homo sapiens, UniProt Q9HD36).
T1 sequence (Q9HD36 whole entry): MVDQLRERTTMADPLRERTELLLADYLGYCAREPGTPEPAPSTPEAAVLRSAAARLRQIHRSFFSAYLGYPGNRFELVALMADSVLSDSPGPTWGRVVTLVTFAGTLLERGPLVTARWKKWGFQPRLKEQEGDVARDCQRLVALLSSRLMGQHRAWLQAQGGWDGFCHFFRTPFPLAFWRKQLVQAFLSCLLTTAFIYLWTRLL
The test can be described thus: Bcl-B/TR3 peptide binding disruption – biochemical, fluorescence polarization, FITC-TR3 peptide, selectivity assay for Bfl-1 inhibitor project, primary screen (AID 748).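 Further: fluorescence polarization from a fluorescein-labelled TR3 peptide binding purified Bcl-B.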 Background: In fluorescence polarisation assays a small probe gives low polarisation when free and higher when bound to something large.

Test [5] is described as follows: HepG2 cell cytotoxicity, dose response, cytotoxicity control for non-replicating M. tuberculosis project (AID 489018). As to conditions: Mycobacterium tuberculosis. Format: functional.
Test [6] can be described thus: Luminescence Cell-Based Dose Retest to Confirm Inhibitors of Cancer Stem Cells. [Related pubchem assays (depositor defined):AID2717, AID2721]. Format: functional. As to conditions: Homo sapiens.
A short description of test [7]: non-specific 3'UTR reporter inhibition in Clone20-Shn3RL – cell-based, Renilla luciferase, cherry-picked, counter-screen for Shn3 inhibitor project, dose response (AID 624133). In kind it is functional.
Test [8] can be described thus: reduction of Shn3 3'UTR-driven luciferase in osteoblasts – cell-based, Clone20 osteoblasts, firefly luciferase, cherry-picked, dose response (AID 624132).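 Further: firefly luciferase luminescence from reporter carrying the Shn3 3'UTR in osteoblasts.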 In kind it is functional.
Test [9] can be described thus: loss of viability in HepG2 cells – cell-based, CellTiter-Glo, cherry-picked, cytotoxicity control for Shn3 inhibitor project, dose response (AID 624134). In kind it is functional. On the technique in general: Cellular ATP, detected with luciferase, serves as a proxy for viable cell number.
A short description of test [10]: luciferase reporter signal suppression in cells – H4 neuroglioma cells, luminescence, dose response (AID 1990). In kind it is functional, cell-based.
For test [11], the target named is T2, Nucleotide-binding oligomerization domain-containing protein 2 (Homo sapiens, UniProt Q9HC29). The test can be described thus: PubChem AID 2334. In kind it is functional.
In test [12] the target is T3, Nucleotide-binding oligomerization domain-containing protein 1 (Homo sapiens, UniProt Q9Y239).
T3 sequence (Q9Y239 whole entry): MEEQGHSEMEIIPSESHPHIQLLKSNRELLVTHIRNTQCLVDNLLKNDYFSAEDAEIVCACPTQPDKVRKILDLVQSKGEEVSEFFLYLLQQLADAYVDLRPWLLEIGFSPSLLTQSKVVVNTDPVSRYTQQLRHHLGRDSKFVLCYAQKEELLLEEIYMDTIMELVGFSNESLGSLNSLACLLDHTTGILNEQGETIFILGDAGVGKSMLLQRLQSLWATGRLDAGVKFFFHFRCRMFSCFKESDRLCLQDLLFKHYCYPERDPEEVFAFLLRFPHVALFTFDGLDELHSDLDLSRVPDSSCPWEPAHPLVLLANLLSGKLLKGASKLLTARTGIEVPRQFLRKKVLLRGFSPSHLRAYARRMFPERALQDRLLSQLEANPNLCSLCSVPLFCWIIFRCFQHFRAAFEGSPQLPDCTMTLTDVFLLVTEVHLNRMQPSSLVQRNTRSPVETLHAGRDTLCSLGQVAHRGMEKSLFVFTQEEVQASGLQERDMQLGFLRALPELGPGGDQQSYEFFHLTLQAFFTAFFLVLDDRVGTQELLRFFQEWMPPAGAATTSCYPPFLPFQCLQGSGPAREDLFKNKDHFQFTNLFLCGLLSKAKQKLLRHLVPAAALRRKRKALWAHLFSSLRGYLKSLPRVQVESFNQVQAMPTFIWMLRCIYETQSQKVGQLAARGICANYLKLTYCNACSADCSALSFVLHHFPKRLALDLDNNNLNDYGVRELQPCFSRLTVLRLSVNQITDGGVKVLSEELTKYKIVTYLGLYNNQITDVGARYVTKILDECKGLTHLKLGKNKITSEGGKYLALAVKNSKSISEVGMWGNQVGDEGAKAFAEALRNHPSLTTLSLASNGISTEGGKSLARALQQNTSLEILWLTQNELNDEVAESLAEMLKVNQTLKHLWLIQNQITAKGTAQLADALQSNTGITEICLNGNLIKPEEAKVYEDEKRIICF
The test can be described thus: blockers of NOD1 pathway activity – revised, SAR follow-up (AID 2333). In kind it is functional.

The test system of test [13] is HEK293. The test is described as follows: inhibition of NOD1-driven NF-kB reporter – cell-based, luminescence, uHTS, primary screen (AID 1578). As to conditions: Homo sapiens. Format: functional.
Test [14] concerns HEK293. The test is described as follows: cells. As to conditions: Homo sapiens. Format: functional, cell-based.
A short description of test [15]: alpha-synuclein stem-loop luciferase translation blockers – H4 neuroglioma cells, luminescence, confirmation (AID 1988). In kind it is functional, cell-based.
Test [16] is described as follows: Luminescence Cell-Based Dose Response HTS to Identify Inhibitors of 5'UTR Stem-Loop Driven Prion Protein mRNA Translation in H4 Neuroglioblastoma Cells. [Related pubchem assays: 1827 (Project Summary), 1813 (Primary HTS)]. In kind it is functional.
The subject of test [17] is HEK293. The test can be described thus: cells. Format: functional, cell-based. As to conditions: Homo sapiens. This is another data set of the same source.
A short description of test [18]: Trypanosoma cruzi growth suppression in host cells – NIH3T3 host cells, beta-gal luminescence, confirmation (AID 2044).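 Further: intracellular parasites grown in NIH/3T3 mouse fibroblasts as host cells; luminescent beta-galactosidase reporter signal from transgenic T. cruzi replicating inside host cells; inhibitors lower the luminescence signal.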 In kind it is functional, cell-based.
Test [19] deals with T2, Nucleotide-binding oligomerization domain-containing protein 2. The test can be described thus: inhibition of NOD2-driven NF-kB reporter – cell-based, luminescence, uHTS, HEK293 (AID 1566). Format: functional.
A further test deals with Tumor necrosis factor (Homo sapiens, UniProt P01375). The test can be described thus: analog potency on TNFa NF-kB signaling – cell-based, revised, SAR follow-up (AID 2337). In kind it is functional.
Test [20] has as its system HEK293. The test can be described thus: cells. Format: functional, cell-based. As to conditions: Homo sapiens. This is another data set of the same source.
For test [21], the system named is HEK293. The test is described as follows: cells. As to conditions: Homo sapiens.
The nature of test [22]: NIH3T3 cell viability loss – ATP luminescence, mouse fibroblasts, counter-screen, dose response (AID 2010).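 Further: cells exposed to compound for about 90 hours before reading.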 In kind it is functional, cell-based.
In test [23] the test system is HEK293. The test can be described thus: NOD2 signaling inhibitors in MDP-stimulated cells, cell-based, uHTS, luminescence (AID 2001). As to conditions: Homo sapiens. In kind it is functional.
The next test concerns Vero. The test can be described thus: cells. In kind it is functional, cell-based. As to conditions: Chlorocebus sabaeus.
A short description of test [24]: toxicity toward HepG2 liver cells – cell-based, plate reader, cherry-pick, antagonist series, cytotoxicity control, dose response (AID 743416). In kind it is functional.
The target in a further test is T4, Bcl-2-related protein A1 (Mus musculus, UniProt Q07440).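 Further: confirmatory dose–response counterscreen on Bfl-1, used to check hits from a UBC13 polyubiquitin inhibitor campaign.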
T4 sequence (Q07440 whole entry): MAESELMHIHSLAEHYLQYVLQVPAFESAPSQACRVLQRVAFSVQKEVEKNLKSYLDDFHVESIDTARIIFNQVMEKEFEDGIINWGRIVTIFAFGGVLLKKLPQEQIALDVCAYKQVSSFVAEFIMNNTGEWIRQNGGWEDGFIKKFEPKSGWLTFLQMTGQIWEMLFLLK
In kind it is functional.

The target in test [25] is Neurotensin receptor type 1 (Homo sapiens, UniProt P30989). Format: functional.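 Further: Image-based confirmatory dose-response assay measuring agonist activity at NTR1; NTR1-expressing U2OS osteosarcoma cells imaged for beta-arrestin GFP spot formation; agonist potency where compounds increase beta-arrestin recruitment.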
A short description of test [26]: viability loss in HEK293 cells – cell-based, plate reader, cherry-picked samples, cytotoxicity control, dose response (AID 743446). Format: functional.
A short description of test [27]: blockade of melanocortin 4 receptor signaling – cell-based, plate reader, cherry pick, counter-screen for LGR2 antagonist project, dose response (AID 743444).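 Further: transfected HEK 293 cells stimulated with alpha-MSH peptide; potency of inhibitors of the alpha-MSH evoked signal.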 Format: functional.
In test [28] the target is T5, Ubiquitin-conjugating enzyme E2 N (Homo sapiens, UniProt P61088).
T5 sequence (P61088 whole entry): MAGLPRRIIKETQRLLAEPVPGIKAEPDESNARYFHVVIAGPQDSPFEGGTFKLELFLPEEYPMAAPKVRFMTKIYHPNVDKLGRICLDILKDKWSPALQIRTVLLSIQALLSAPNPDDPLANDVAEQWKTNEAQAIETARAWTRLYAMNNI
Format: functional.

A short description of test [29]: A549 cell cytotoxicity, dose response, cytotoxicity control, plate reader, cherry-pick, antagonist series (AID 743412). Format: functional, cell-based.
A short description of test [30]: blockers of bursicon-stimulated LGR2 cAMP reporter – cell-based, HEK293, CRE-luciferase reporter, cherry pick, set 2, dose response (AID 743343).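 Further: transfected cells were stimulated with diluted bursicon conditioned medium after compound addition.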 In kind it is functional.
Test [31] deals with T5, Ubiquitin-conjugating enzyme E2 N. In kind it is functional. This is another data set of the same source.

Active and inactive are the calls of the source. Where only a bound is given, the exact number is not on record here.

T2 sequence (Q9HC29 whole entry, the tested form may be a part): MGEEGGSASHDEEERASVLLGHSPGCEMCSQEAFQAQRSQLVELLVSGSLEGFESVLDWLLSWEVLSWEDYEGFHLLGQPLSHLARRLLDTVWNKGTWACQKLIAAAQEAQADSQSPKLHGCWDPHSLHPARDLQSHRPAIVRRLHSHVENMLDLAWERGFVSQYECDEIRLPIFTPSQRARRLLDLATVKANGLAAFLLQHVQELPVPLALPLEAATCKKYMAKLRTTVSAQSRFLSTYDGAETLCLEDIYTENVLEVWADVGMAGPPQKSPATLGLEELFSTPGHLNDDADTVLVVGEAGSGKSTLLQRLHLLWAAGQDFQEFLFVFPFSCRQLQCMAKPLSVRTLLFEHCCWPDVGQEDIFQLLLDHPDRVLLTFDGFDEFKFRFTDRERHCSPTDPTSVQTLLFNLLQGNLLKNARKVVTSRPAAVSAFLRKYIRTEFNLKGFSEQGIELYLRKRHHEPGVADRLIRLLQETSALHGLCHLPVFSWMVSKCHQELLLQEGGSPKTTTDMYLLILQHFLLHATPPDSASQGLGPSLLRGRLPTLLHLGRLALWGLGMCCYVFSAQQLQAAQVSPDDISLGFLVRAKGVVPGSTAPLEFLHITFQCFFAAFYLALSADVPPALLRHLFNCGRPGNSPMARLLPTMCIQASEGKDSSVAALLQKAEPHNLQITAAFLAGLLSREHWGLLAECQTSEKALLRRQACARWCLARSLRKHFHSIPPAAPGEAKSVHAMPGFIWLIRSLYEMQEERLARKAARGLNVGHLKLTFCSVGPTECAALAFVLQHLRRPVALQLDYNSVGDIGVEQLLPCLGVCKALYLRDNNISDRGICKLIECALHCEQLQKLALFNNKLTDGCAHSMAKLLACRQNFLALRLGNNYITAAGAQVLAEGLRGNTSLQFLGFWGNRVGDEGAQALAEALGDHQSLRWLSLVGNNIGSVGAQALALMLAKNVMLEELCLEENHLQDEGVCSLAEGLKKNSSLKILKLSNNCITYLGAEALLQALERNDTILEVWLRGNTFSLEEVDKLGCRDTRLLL
Tumor necrosis factor, sequence (P01375 whole entry): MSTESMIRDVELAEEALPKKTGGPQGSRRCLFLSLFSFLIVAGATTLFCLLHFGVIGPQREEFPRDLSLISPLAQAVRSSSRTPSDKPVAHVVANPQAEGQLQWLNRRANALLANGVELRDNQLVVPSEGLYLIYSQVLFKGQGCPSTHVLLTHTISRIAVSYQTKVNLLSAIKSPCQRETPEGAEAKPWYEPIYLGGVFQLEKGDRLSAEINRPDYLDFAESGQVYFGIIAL
Beta-2 adrenergic receptor, sequence (P07550 whole entry): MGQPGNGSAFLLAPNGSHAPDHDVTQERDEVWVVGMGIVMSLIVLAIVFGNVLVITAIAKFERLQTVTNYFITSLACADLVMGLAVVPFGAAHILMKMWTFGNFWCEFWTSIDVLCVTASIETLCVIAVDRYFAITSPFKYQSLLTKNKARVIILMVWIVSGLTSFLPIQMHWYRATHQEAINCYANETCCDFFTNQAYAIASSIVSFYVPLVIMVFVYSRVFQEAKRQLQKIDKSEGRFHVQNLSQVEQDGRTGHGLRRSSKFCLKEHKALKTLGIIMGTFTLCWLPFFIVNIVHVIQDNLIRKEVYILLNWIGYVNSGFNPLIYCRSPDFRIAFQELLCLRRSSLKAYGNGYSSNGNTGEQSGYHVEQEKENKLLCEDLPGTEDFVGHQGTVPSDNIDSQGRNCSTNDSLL
Neurotensin receptor type 1, sequence (P30989 whole entry): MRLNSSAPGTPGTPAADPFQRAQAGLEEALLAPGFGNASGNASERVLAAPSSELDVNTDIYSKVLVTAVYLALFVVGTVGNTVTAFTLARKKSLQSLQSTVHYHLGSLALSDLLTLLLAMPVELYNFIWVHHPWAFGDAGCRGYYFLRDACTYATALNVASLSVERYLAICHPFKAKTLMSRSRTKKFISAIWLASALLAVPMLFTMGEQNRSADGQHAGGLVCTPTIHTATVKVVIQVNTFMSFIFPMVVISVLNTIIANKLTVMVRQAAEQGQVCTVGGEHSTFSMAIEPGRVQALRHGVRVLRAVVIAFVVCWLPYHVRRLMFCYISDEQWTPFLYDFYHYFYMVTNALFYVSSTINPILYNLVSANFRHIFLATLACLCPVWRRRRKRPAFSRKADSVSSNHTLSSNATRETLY

As for `COc1ccc(-c2ccc(OC)c([C@H]3[C@H]4C=CC[C@@H](C)[C@@H]4C(=O)N3Cc3ccccc3)c2)cc1`, the IC50 (usually the concentration that inhibits the measured activity by half) in test [1] is > 80 µM (inactive).
For `COc1cc(CNCCc2c[nH]c3ccccc23)ccc1OCc1ccc(F)cc1`, the CC50 (usually the concentration giving 50% cytotoxicity) is 11.3 µM (active) in test [2], 12 µM (active) in [4] and 8 µM (active) in test [5]. Besides, the EC50 (in general, the concentration giving half of the maximal effect) in [3] was 36.7 µM (inactive). Moreover, the half-inhibitory concentration (IC50) in the test “cells” was 10.7 µM (active); on Bcl-2-like protein 10 it was > 100 µM (inactive). In addition, the concentration at half-maximal activity (AC50) (commonly the midpoint of the concentration-response curve, whichever way the signal moves) in test [6] is 5 µM (active).
Regarding `O=C(CCCCCn1c(=S)[nH]c2ccccc2c1=O)NCc1ccc2c(c1)OCO2`, the EC50 in [3] was 0.0077 µM (active). Also, the IC50 at Bcl-2-like protein 10 was > 100 µM (inactive).
On to `Cn1nnnc1Sc1ncnc2scc(Br)c12`, for which the AC50 in test [7] is 12.5 µM (active); in [8], 6.51 µM (active); in test [9], 39 µM (active); in test [6], 2.12 µM (active). The IC50 in [1] was > 80 µM (inactive).
As for `CCCCCn1c(=O)c(C(=O)Nc2ccccc2S(N)(=O)=O)c(O)c2ccccc21`, the half-maximal effective concentration (EC50) in test [10] is > 120 µM (not active); with HEK293 [13], 6.17 µM (active); in [15], 9.08 µM (active); in test [16], > 120 µM (not active); in test [18], 2.07 µM (active); in test [19], 5.7 µM (active). The half-maximal effective concentration (EC50) in [22] was > 30 µM (not active). The IC50 is 6.92 µM (active) in test [11]; 5.88 µM (active) in test [12]; > 20 µM (inactive) in the test with HEK293 [14]; > 20 µM (inactive) with HEK293 [17]; 3.44 µM (active) on Tumor necrosis factor; > 20 µM (inactive) with HEK293 [20]. The IC50 with HEK293 [21] was > 20 µM (inactive); in the test on HEK293 [23], 8.2 µM (active).
Turning to `Cc1ccc2c(c1)CCCN2S(=O)(=O)c1cccc(C(=O)Nc2ccccc2C(=O)O)c1`, the IC50 was 12.6 µM (active) in [11]; 9.05 µM (active) in [12]; > 20 µM (inactive) in the test on HEK293 [14]; > 20 µM (inactive) in the test with HEK293 [17]; > 25 µM (active) with Vero; 7.52 µM (active) on Tumor necrosis factor. Also, the IC50 with HEK293 [20] is > 20 µM (inactive); in the test with HEK293 [21], > 20 µM (inactive); with HEK293 [23], 15.9 µM (inactive). In addition, the EC50 with HEK293 [13] is 9.32 µM (active); in test [18] it was 4.95 µM (active); in test [19], 4.45 µM (active); in [22], 4.22 µM (active).
Take `CCOC(=O)/C(=C\c1cccc(O)c1)c1nc(O)c2c(C)c(C)sc2n1`: the AC50 in [24] was 13.5 µM (active); in [26] it was 22.8 µM (active); in [27] it was 24.5 µM (active); in test [29], 20.3 µM (active); in test [30], 12.9 µM (active). In addition, the IC50 on Bcl-2-related protein A1 is > 20 µM (inactive); in [28], > 20 µM (inactive); in test [31], 16.4 µM (active). In test [25], the EC50 is 6.59 µM (active).

The values above are taken from ChEMBL document CHEMBL1201862, “PubChem BioAssay data set” (2004).
